Columns and labels:
[1] = target: T1, PIM2 serine/threonine kinase (Homo sapiens, UniProt Q9P1W9); assay: PIM2 serine/threonine kinase inhibitory effect; assay type: biochemical; conditions: PIM2 serine/threonine kinase activity; ATP 2 μM; 30° C., 30 minutes
T1 construct: purchased Carna Bioscience, Inc
Experimental: (§1) Each test substance was prepared to 10 mM with dimethylsulfoxide (DMSO), and further diluted with DMSO so as to have concentrations of 1000, 300, 100, 30, 10, 3, 1, 0.3, 0.1, 0.03, 0.01, and 0.001 μM. Moreover, each dilution was further diluted 33.3-fold with an assay buffer to prepare a test substance solution. The composition of the assay buffer was 50 mM HEPES (pH 7.0), 0.02% NaN3, 0.01% Bovine Serum Albumin, 0.1 mM Orthovanadate, 1 mM Dithiothreitol, and 5 mM MgCl2.
(§2) 5 μL of each test substance solution was added to 384-well plates (n=2), and then 2.5 μL of a substrate solution (substrate 3-biotin (Cisbio Bioassays SAS), final concentration in the reaction solution: 0.5 μM) and 2.5 μL of an ATP solution (in the cases of PIM1, 2, 3, the final concentrations in the reaction solutions were 40, 2, and 10 μM, respectively) were added, 5 μL of each of PIM1, 2, 3 serine/threonine kinase solutions (Carna Bioscience, Inc., the final concentrations in the reaction solutions were 0.15, 1.6, and 0.25 μg/ml, respectively) was finally added, and the mixture was reacted at 30° C. for 30 minutes. The test substance concentrations in the reaction solutions are 10000, 3000, 1000, 300, 100, 30, 10, 3, 1, 0.3, 0.1, and 0.01 nM.
(§3) Thereafter, 15 μL of each detection solution (62.5 nM Streptavidin-XL665 (Cisbio Bioassays SAS), […] STK antibody-Cryptate (Cisbio Bioassays SAS), 50 mM HEPES (pH 7.0), 0.8 M KF, 0.1% Bovine Serum Albumin, 20 mM ethylenediaminetetraacetic acid) was added to each well. After stirring, the mixture was reacted at 30° C. for 1 hour. Absorbance (OD620, OD665) at 620 and 665 nm was measured with a microplate reader (SpectraMax M5e, Molecular Devices, LLC).
(§4) Non-linear regression analysis was performed by an SAS system (SAS Institute Inc.) using the ratio (OD665/OD620) of the measured absorbance to calculate a test substance concentration (IC50) that inhibits PIM1 serine/threonine kinase activity by 50%.
(§5) For the compounds with the following Example numbers, in addition to the above PIM1 serine/threonine kinase activity (IC50), test substance concentrations (IC50) that inhibit PIM2 serine/threonine kinase activity and PIM3 serine/threonine kinase activity by 50% were calculated.

[2] = target: T2, PIM3 serine/threonine kinase (Homo sapiens, UniProt Q86V86); assay: PIM3 serine/threonine kinase inhibitory effect; assay type: biochemical; conditions: PIM3 serine/threonine kinase activity; ATP 10 μM; 30° C., 30 minutes
T2 construct: purchased Carna Bioscience, Inc
Experimental: as §1, §2, §3, §4, §5

T1 sequence (Q9P1W9 whole entry): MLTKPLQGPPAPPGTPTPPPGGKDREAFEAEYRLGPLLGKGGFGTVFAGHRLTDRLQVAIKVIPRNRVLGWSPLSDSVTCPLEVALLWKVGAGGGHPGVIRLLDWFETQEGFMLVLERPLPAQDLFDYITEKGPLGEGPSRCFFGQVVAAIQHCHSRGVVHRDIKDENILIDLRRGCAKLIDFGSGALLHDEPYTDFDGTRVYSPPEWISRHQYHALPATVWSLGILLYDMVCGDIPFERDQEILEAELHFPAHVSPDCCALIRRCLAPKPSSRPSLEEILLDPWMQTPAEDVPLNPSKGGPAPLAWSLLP

C[C@H](Nc1cc(-c2n[nH]c(=O)o2)cc(F)c1C(F)(F)F)C1CCNCC1.Cl [Example 75, 5-[3-fluoro-5-{[(1S)-1-(piperidin-4-yl)ethyl]amino}-4-(trifluoromethyl)phenyl]-1,3,4-oxadiazol-2(3H)-one hydrochloride]
IC50 [1]: 2.3 nM | IC50 [2]: 10 nM

— patent US20220024921A1, “1,3,4-OXADIAZOLONE COMPOUND AND PHARMACEUTICAL” (NIPPON SHINYAKU CO., LTD., priority 2018, published 2022)
